Experimental data: patent US9315494B2, “Alkyl-amide-substituted pyridyl compounds useful as modulators of IL-12, IL-23 and/or IFNα responses” (Bristol-Myers Squibb Company, priority 2012, dated 2016)

How the values were obtained:
[1] = system: IFNα-stimulated STAT-dependent luciferase reporter in Kit225 T cells; assay: Kit225 T cell assay, IFNα stimulated STAT-dependent luciferase reporter; format: cell-based, human; details: Kit225 T cells, 200 U/mL human recombinant IFNα, 5-6 hours, luciferase; read-out: IFNα (Kit225 T Cell Inhibition Data)
Experimental: (§1) Kit225 T cells with a stably-integrated STAT-dependent luciferase reporter were plated in RPMI (Gibco) containing 10% heat-inactivated FBS (Gibco) and 100 U/mL PenStrep (Gibco). The cells were then stimulated with either 20 ng/mL human recombinant IL-23 or 200 U/mL human recombinant IFNα (PBL InterferonSource) for 5-6 hours. Luciferase expression was measured using the STEADY-GLO® Luciferase Assay System (Promega) according to the manufacturer's instructions.

[2] = system: IL-23-stimulated STAT-dependent luciferase reporter in Kit225 T cells; assay: Kit225 T cell assay, IL-23 stimulated STAT-dependent luciferase reporter; format: cell-based, human; details: Kit225 T cells, 20 ng/mL human recombinant IL-23, 5-6 hours, luciferase; read-out: IL23 (Kit225 T Cell Inhibition Data)
Experimental: as §1

CNC(=O)c1cnc(Nc2ccccn2)cc1Nc1ccc(F)cc1S(C)(=O)=O [Example 299]
IC50 [1]: 90 nM
IC50 [2]: 270 nM

CNC(=O)c1cnc(Nc2ccc(N3CCOCC3)cn2)cc1Nc1ccc(F)c(F)c1OC [Example 101]
IC50 [1]: 80 nM
IC50 [2]: 200 nM

CNC(=O)c1cnc(Nc2cc(C(=O)N3CCCC3)ccn2)cc1Nc1ccc(F)cc1OC [Example 268]
IC50 [1]: 740 nM
IC50 [2]: 785 nM

CNC(=O)c1cnc(Nc2ccc3[nH]ccc3n2)cc1Nc1ccc(F)cc1OC [Example 160]
IC50 [1]: 1070 nM
IC50 [2]: 1240 nM

CNC(=O)c1cnc(Nc2cnccn2)cc1Nc1ccccc1C(N)=O [Example 178]
IC50 [1]: 1880 nM
IC50 [2]: 1630 nM

CNC(=O)c1cnc(Nc2ccccn2)cc1Nc1ccc(Cl)cc1S(C)(=O)=O [Example 12]
IC50 [1]: 50 nM
IC50 [2]: 109 nM

CNC(=O)c1cnc(Nc2ccc(F)cn2)cc1Nc1ccc(F)cc1OC [Example 119]
IC50 [1]: 860 nM
IC50 [2]: 2200 nM

CNC(=O)c1cnc(Nc2ccc(F)cn2)cc1Nc1ccc(Cl)cc1S(C)(=O)=O [Example 11]
IC50 [1]: 60 nM
IC50 [2]: 161 nM

CNC(=O)c1cnc(Nc2ccc(C#N)cn2)cc1Nc1cc(F)cc(F)c1OC [Example 145]
IC50 [1]: 420 nM
IC50 [2]: 794 nM

CNC(=O)c1ccnc(Nc2cc(Nc3ccc(F)cc3OC)c(C(=O)NC)cn2)c1 [Example 275]
IC50 [1]: 680 nM
IC50 [2]: 1040 nM

CNC(=O)c1cnc(Nc2cc(C)nc(C)n2)cc1Nc1cccc(F)c1OC [Example 410]
IC50 [1]: 8.61 nM
IC50 [2]: 20 nM

CNC(=O)c1cnc(Nc2ccc(F)cn2)cc1Nc1ccccc1NC(C)=O [Example 280]
IC50 [1]: 5990 nM
IC50 [2]: 5050 nM

CNC(=O)c1cnc(Nc2cc(C(C)=O)ccn2)cc1Nc1ccccc1S(C)(=O)=O [Example 26]
IC50 [1]: 670 nM
IC50 [2]: 1060 nM

CNC(=O)c1cnc(Nc2cc(C)ccn2)cc1Nc1ccc(F)cc1S(C)(=O)=O [Example 52]
IC50 [1]: 90 nM
IC50 [2]: 200 nM

CNC(=O)c1cnc(Nc2ccc(C#N)cn2)cc1Nc1cccc(-c2ncn(C)n2)c1OC [Example 376]
IC50 [1]: 3.47 nM
IC50 [2]: 9.35 nM

CNC(=O)c1cnc(Nc2ccc3ccccc3n2)cc1Nc1ccccc1C(C)(C)O [Example 180]
IC50 [1]: 2580 nM
IC50 [2]: 5090 nM

CNC(=O)c1cnc(Nc2cc(C)c(F)cn2)cc1Nc1cccc(C(=O)NCC2CC2)c1OC [Example 324]
IC50 [1]: 70 nM
IC50 [2]: 220 nM

CNC(=O)c1cnc(Nc2ccc(F)cn2)cc1Nc1ccc(C2CC2)cc1 [Example 198]
IC50 [1]: 5300 nM
IC50 [2]: 4530 nM

CNC(=O)c1cnc(Nc2cccc(C)n2)cc1Nc1ccccc1S(C)(=O)=O [Example 21]
IC50 [1]: 30 nM
IC50 [2]: 50.9 nM

[2H]C([2H])([2H])NC(=O)c1cnc(Nc2cc(C)c(F)cn2)cc1Nc1cccc(-c2cnn(C)c2)c1OC [Example 399]
IC50 [1]: 50 nM
IC50 [2]: 50 nM

CNC(=O)c1cnc(Nc2ccc(C#N)c(C)n2)cc1Nc1ccccc1S(C)(=O)=O [Example 440]
IC50 [1]: 260 nM
IC50 [2]: 250 nM

CNC(=O)c1cnc(Nc2cc(C(=O)NC3CC3)ccn2)cc1Nc1ccc(Cl)cc1OC [Example 259]
IC50 [1]: 200 nM
IC50 [2]: 433 nM

CNC(=O)c1cnc(Nc2cc(-c3ccccc3)ccn2)cc1Nc1ccccc1C(N)=O [Example 75]
IC50 [1]: 1730 nM
IC50 [2]: 2030 nM

CNC(=O)c1cnc(Nc2cc(C(=O)N3CCCC3)ccn2)cc1Nc1cc(F)cc(F)c1OC [Example 270]
IC50 [1]: 170 nM
IC50 [2]: 221 nM

CNC(=O)c1cnc(Nc2cc(C)c(F)cn2)cc1Nc1cccc(C(=O)Nc2ccccc2)c1OC [Example 328]
IC50 [1]: 120 nM
IC50 [2]: 600 nM

CCc1cc(C#N)ccc1Nc1cc(Nc2cc(C)nc(C)n2)ncc1C(=O)NC [Example 401]
IC50 [1]: 440 nM
IC50 [2]: 480 nM

CNC(=O)c1cnc(Nc2cc(C)c(F)cn2)cc1Nc1cccc(C(=O)NCCOC)c1OC [Example 352]
IC50 [1]: 20 nM
IC50 [2]: 20 nM

CNC(=O)c1cnc(Nc2cc(S(=O)(=O)N(C)C)ccn2)cc1Nc1ccccc1S(C)(=O)=O [Example 19]
IC50 [1]: 430 nM
IC50 [2]: 749 nM

CNC(=O)c1cnc(Nc2cc(F)ccn2)cc1Nc1ccccc1NS(C)(=O)=O [Example 427]
IC50 [1]: 150 nM
IC50 [2]: 140 nM

CNC(=O)c1cnc(Nc2cc(C#N)ccn2)cc1Nc1ccc(F)cc1S(C)(=O)=O [Example 34]
IC50 [1]: 160 nM
IC50 [2]: 114 nM

CNC(=O)c1cnc(Nc2ccc(C(F)(F)F)cn2)cc1Nc1ccc(F)cc1OC [Example 157]
IC50 [1]: 9860 nM
IC50 [2]: 5200 nM

CNC(=O)c1cnc(Nc2ccccn2)cc1Nc1cccc(F)c1S(C)(=O)=O [Example 46]
IC50 [1]: 1390 nM
IC50 [2]: 2980 nM

CNC(=O)c1cnc(Nc2cccc(-c3ccccc3)n2)cc1Nc1ccccc1C(N)=O [Example 77]
IC50 [1]: 350 nM
IC50 [2]: 538 nM

CNC(=O)c1cnc(Nc2cccc(OC)n2)cc1Nc1cc(F)cc(F)c1OC [Example 130]
IC50 [1]: 50 nM
IC50 [2]: 119 nM

CNC(=O)c1cnc(Nc2ccc(N3CCOCC3)cn2)cc1Nc1ccccc1S(C)(=O)=O [Example 9]
IC50 [1]: 40 nM
IC50 [2]: 97.8 nM

CNC(=O)c1cnc(Nc2cccc(F)n2)cc1Nc1ccccc1S(C)(=O)=O [Example 20]
IC50 [1]: 40 nM
IC50 [2]: 50.7 nM

CNC(=O)c1cnc(Nc2ccc(F)cn2)cc1Nc1cccc(C#N)c1OC [Example 357]
IC50 [1]: 30 nM
IC50 [2]: 120 nM

CNC(=O)c1cnc(Nc2ccc(C(=O)N(C)C)cn2)cc1Nc1ccc(Cl)cc1OC [Example 262]
IC50 [1]: 410 nM
IC50 [2]: 727 nM

CNC(=O)c1cnc(Nc2cc(C)ccn2)cc1Nc1ccc(F)cc1OC [Example 148]
IC50 [1]: 300 nM
IC50 [2]: 751 nM

CNC(=O)c1cnc(Nc2cnccn2)cc1Nc1ccccc1S(C)(=O)=O [Example 38]
IC50 [1]: 370 nM
IC50 [2]: 550 nM

CNC(=O)c1cnc(Nc2ccc(F)cn2)cc1Nc1ccccc1SC(F)(F)F [Example 210]
IC50 [1]: 860 nM
IC50 [2]: 1680 nM

CNC(=O)c1cnc(Nc2ccc3[nH]ccc3n2)cc1Nc1ccc(Cl)cc1OC [Example 114]
IC50 [1]: 1540 nM
IC50 [2]: 4550 nM

CNC(=O)c1cnc(Nc2ccc(OC)cn2)cc1Nc1ccc(Cl)cc1OC [Example 112]
IC50 [1]: 400 nM
IC50 [2]: 717 nM

CNC(=O)c1cnc(Nc2ccc(N3CCOCC3)cn2)cc1Nc1c(F)cccc1OC [Example 219]
IC50 [1]: 2810 nM
IC50 [2]: 5090 nM

CNC(=O)c1cnc(Nc2cc(C)ccn2)cc1Nc1cccc(F)c1S(C)(=O)=O [Example 49]
IC50 [1]: 540 nM
IC50 [2]: 410 nM

CNC(=O)c1cnc(Nc2cc(C)c(F)cn2)cc1Nc1cccc(C(=O)NCCCO)c1OC [Example 348]
IC50 [1]: 180 nM
IC50 [2]: 430 nM

CNC(=O)c1cnc(Nc2cc(C)c(F)cn2)cc1Nc1cccc(C(=O)NCC(C)C)c1OC [Example 350]
IC50 [1]: 80 nM
IC50 [2]: 80 nM

CNC(=O)c1cnc(Nc2ccc(F)cn2)cc1Nc1ccc(-c2ncco2)cc1S(C)(=O)=O [Example 311]
IC50 [1]: 160 nM
IC50 [2]: 190 nM

CNC(=O)c1cnc(Nc2cc(F)ccn2)cc1Nc1cc(F)ccc1S(C)(=O)=O [Example 57]
IC50 [1]: 190 nM
IC50 [2]: 160 nM

CNC(=O)c1cnc(Nc2cc(C(N)=O)ccn2)cc1Nc1cc(F)cc(F)c1OC [Example 264]
IC50 [1]: 350 nM
IC50 [2]: 542 nM

CNC(=O)c1cnc(Nc2cccc(C)n2)cc1Nc1cc(F)cc(F)c1OC [Example 132]
IC50 [1]: 120 nM
IC50 [2]: 187 nM

CNC(=O)c1cnc(Nc2cccc(C(F)(F)F)n2)cc1Nc1cc(F)cc(F)c1OC [Example 138]
IC50 [1]: 220 nM
IC50 [2]: 354 nM

CNC(=O)c1cnc(Nc2cc(C)nc(C)n2)cc1Nc1cccc(-c2nnc[nH]2)c1OC [Example 362]
IC50 [1]: 10 nM
IC50 [2]: 20 nM

CNC(=O)c1cnc(Nc2ccc(F)cn2)cc1Nc1ccc(F)cc1SC [Example 207]
IC50 [1]: 2040 nM
IC50 [2]: 3300 nM

CNC(=O)c1cnc(Nc2ccccn2)cc1Nc1ccc(F)cc1S(C)(=O)=O [Example 10]
IC50 [1]: 120 nM
IC50 [2]: 218 nM

CNC(=O)c1cnc(Nc2cc(C)c(F)cn2)cc1Nc1cccc(-c2nnn[nH]2)c1OC [Example 390]
IC50 [1]: 330 nM
IC50 [2]: 1030 nM

CNC(=O)c1cnc(Nc2ccc(S(=O)(=O)N(C)C)cn2)cc1Nc1ccccc1C(N)=O [Example 88]
IC50 [1]: 890 nM
IC50 [2]: 2860 nM

CNC(=O)c1cnc(Nc2ccccn2)cc1Nc1cc(F)cc(F)c1OC [Example 131]
IC50 [1]: 60 nM
IC50 [2]: 183 nM

[2H]C([2H])([2H])NC(=O)c1cnc(Nc2cc(C)nc(C)n2)cc1Nc1cccc(-c2csc(C)n2)c1OC [Example 404, 6-((2,6-dimethylpyrimidin-4-yl)amino)-4-((2-methoxy-3-(2-methylthiazol-4-yl)phenyl)amino)-N-trideuteromethylnicotinamide]
IC50 [1]: 8.63 nM
IC50 [2]: 4.4 nM

CNC(=O)c1cnc(Nc2cc(C(=O)N(C)C)ccn2)cc1Nc1cccc(F)c1OC [Example 277]
IC50 [1]: 240 nM
IC50 [2]: 270 nM

CNC(=O)c1cnc(Nc2cc(F)ccn2)cc1Nc1cc(F)cc(F)c1OC [Example 137]
IC50 [1]: 210 nM
IC50 [2]: 188 nM

CNC(=O)c1ccc(Nc2cc(Nc3ccc(F)cn3)ncc2C(=O)NC)c(S(C)(=O)=O)c1 [Example 304]
IC50 [1]: 570 nM
IC50 [2]: 1240 nM

CNC(=O)c1cnc(Nc2ccc(OC)cn2)cc1Nc1ccccc1C(N)=O [Example 70]
IC50 [1]: 730 nM
IC50 [2]: 820 nM

CNC(=O)c1cnc(Nc2cc(C#N)ccn2)cc1Nc1cccc(F)c1S(C)(=O)=O [Example 48]
IC50 [1]: 960 nM
IC50 [2]: 1610 nM
